Patent US10517849B2, “LSD1 inhibitors and medical uses thereof” (Constellation Pharmaceuticals, Inc., priority 2016, dated 2019)
Where a name gives a salt, the structure may show the parent alone.

What was measured:
Kasumi-1 = Kasumi-1 GI50 Assay; assay type: cell-based; details: Homo sapiens, 288 h; Kasumi-1 cells, 12 days, Cell Titer-Glo viability
Method: Cells were plated at 5,000 cells per well in 96 well tissue culture dishes containing tool compounds arrayed in a 10-point dose curve, ranging from […] with 4-fold dilutions, and split every fourth day at a fixed ratio to re-establish 5,000 cells/well density for DMSO-treated controls. Cell treatments were carried out for a total of 12 days. At each 4-day split, the viable cell numbers were determined using the Cell Titer-Glo luminescent cell viability assay (Promega, Madison, Wis. USA) using an EnVision® Multilabel Plate Reader (Perkin Elmer, Waltham, Mass. USA). GraphPad Prism 6 (GraphPad Software, Inc., La Jolla, Calif. USA) was used for curve fitting and determination of GI50 values.

LSD1 = LSD1 (Homo sapiens (Human), UniProt O60341); assay: LSD1 TR-FRET Assay; assay type: biochemical; details: biotinylated H3K4me1 peptide 4 μM, 10 nM LSD1, 40 nM FAD, 50 minutes at room temperature
Method: LSD1 demethylase reactions were carried out in 50 mM HEPES pH 7.4, 100 mM NaCl, 1 mM DTT, 0.01% Tween-20, and 0.1 mg/mL BSA. All enzymatic reactions were performed for 50 minutes at room temperature in a 10-μL volume. Five microliters of 8 μM biotinylated H3K4me1 peptide solution was added to each well of a black 384 well, clear-bottom assay plate containing 80 nL compound (final concentration of 0.8% DMSO and 4 μM substrate). Reactions were initiated by the addition of a mixture containing 20 nM LSD1 and 80 nM FAD (5 μL). LSD1 and FAD final concentrations were 10 and 40 nM, respectively. Enzyme activity was stopped by the addition of 90 μL of high salt buffer consisting of 50 mM HEPES pH 7.4, 500 mM NaCl, 1 mM DTT, 0.01% Tween-20, and 0.1 mg/mL BSA. Ten microliters of the quenched reaction mixtures were transferred to a black 384 well ProxiPlate. Ten microliters of detection mixture was added to the ProxiPlate, Europium-labeled antibody and Streptavidin APC were used at final concentrations of 0.3 nM and 200 nM, respectively (total assay volume of 20 μL). Capture of the product peptide by the anti-H3K4me0 antibody and Streptavidin APC was allowed to proceed for 60 min at room temperature before measuring the TR-FRET signal. Plates were read on a Perkin Elmer EnVision. Percent inhibition was calculated using Max (no inhibitor) and Min (quenched with stop buffer) controls and inhibition curves plotted to determine IC50 values.

[1] = system: LY-96 mRNA induction in MV4-11 cells; assay: LSD1 LY96 Quantigene Assay; assay type: cell-based; details: Homo sapiens, 16 h, Quantigene 2.0
Method: MV4-11 cells were cultured at a density of 4×10^4 cells per well in a 96-well plates and treated with various doses inhibitor starting from 10 μM up to 0.0005 μM for 16 h. The LY-96 mRNA induction was quantified using the Quantigene 2.0 system (Affymetrix). The cells were lysed with Lysis Mixture containing Proteinase K. The working reagent for capturing the RNA was prepared according to the steps detailed in “Capturing Target RNA from Cultured Cell or Blood Lysates” in the Quantigene handbook. The subsequent hybridization with LY-96 probe, signal amplification and detection steps were performed as described in the manual. The chemiluminescence was read using Envision (PerkinElmer) and Abase (IDBS software) was used to plot the dose response curves and calculate IC50.

CC/C(=C\c1ccccc1)[C@@H]1C[C@H]1NC1CC2(C1)CN(CCO)C2 [Compound 1, 2-(6-(((1R,2S)-2-((E)-1-phenylbut-1-en-2-yl)cyclopropyl)amino)-2-azaspiro[3.3]heptan-2-yl)ethanol]
< 100 nM: GI50 (Kasumi-1) | IC50 (LSD1) | EC50 [1]

CC/C(=C\c1ccccc1)[C@@H]1C[C@H]1NC1CC2(C1)CN(C(CO)CO)C2 [Compound 2, 2-(6-(((1R,2S)-2-((E)-1-phenylbut-1-en-2-yl)cyclopropyl)amino)-2-azaspiro[3.3]heptan-2-yl)propane-1,3-diol]
< 100 nM: GI50 (Kasumi-1) | IC50 (LSD1) | EC50 [1]

CC/C(=C\c1ccccc1)[C@@H]1C[C@H]1NC1CC2(C1)CN(CCNS(C)(=O)=O)C2 [Compound 4, N-(2-(6-(((1R,2S)-2-((E)-1-phenylbut-1-en-2-yl)cyclopropyl)amino)-2-azaspiro[3.3]heptan-2-yl)ethyl)methanesulfonamide bis(2,2,2-trifluoroacetate)]
< 100 nM: GI50 (Kasumi-1) | IC50 (LSD1) | EC50 [1]

CC/C(=C\c1ccccc1)[C@@H]1C[C@H]1NC1CC2(CCN(CCO)CC2)C1 [Compound 11, 2-(2-(((1R,2S)-2-((E)-1-phenylbut-1-en-2-yl)cyclopropyl)amino)-7-azaspiro[3.5]nonan-7-yl)ethanol dihydrochloride]
< 100 nM: GI50 (Kasumi-1) | IC50 (LSD1) | EC50 [1]

CC/C(=C\c1ccccc1)[C@@H]1C[C@H]1NC1CC2(C1)CN(CC(=O)NCCO)C2 [Compound 13, N-(2-hydroxyethyl)-2-(6-(((1R,2S)-2-((E)-1-phenylbut-1-en-2-yl)cyclopropyl)amino)-2-azaspiro[3.3]heptan-2-yl)acetamide bis(2,2,2-trifluoroacetate)]
< 100 nM: GI50 (Kasumi-1) | IC50 (LSD1) | EC50 [1]

CC/C(=C\c1ccccc1)[C@@H]1C[C@H]1NC1CC2(CCN(CCOC)CC2)C1 [Compound 17, 7-(2-methoxyethyl)-N-((1R,2S)-2-((E)-1-phenylbut-1-en-2-yl)cyclopropyl)-7-azaspiro[3.5]nonan-2-amine dihydrochloride]
< 100 nM: GI50 (Kasumi-1) | IC50 (LSD1) | EC50 [1]

CC/C(=C\c1ccccc1)[C@@H]1C[C@H]1NC1CC2(C1)CN(CCC(N)=O)C2 [Compound 22, 3-(6-(((1R,2S)-2-((E)-1-phenylbut-1-en-2-yl)cyclopropyl)amino)-2-azaspiro[3.3]heptan-2-yl)propanamide bis(2,2,2-trifluoroacetate)]
< 100 nM: GI50 (Kasumi-1) | IC50 (LSD1) | EC50 [1]

CC/C(=C\c1ccccc1)[C@@H]1C[C@H]1NC1CC2(CCN(CCS(N)(=O)=O)CC2)C1 [Compound 23, 2-(2-(((1R,2S)-2-((E)-1-phenylbut-1-en-2-yl)cyclopropyl)amino)-7-azaspiro[3.5]nonan-7-yl)ethanesulfonamide dihydrochloride]
< 100 nM: GI50 (Kasumi-1) | IC50 (LSD1) | EC50 [1]

CC/C(=C\c1ccccc1)[C@@H]1C[C@H]1NC1CC2(C1)CN(CCS(N)(=O)=O)C2 [Compound 32]
< 100 nM: GI50 (Kasumi-1) | IC50 (LSD1) | EC50 [1]
